Data: US12268692B2, “Combinatorial targeted therapy methods” (Postsurgical Therapeutics, Inc., priority 2020, dated 2025)

Key:
[1] = cited from earlier work
[2] = In vitro release study of sorafenib and everolimus PLGA microspheres (sample-and-separate method, HPLC); details: during in vitro release study
Procedure: The in vitro release study was carried out by sample-and-separate method. Briefly, 5 mg of microsphere sample (n=3) was taken into 100 mL flask and dispersed in 50 mL of release medium (0.5% Tween 20 and 0.1% sodium azide in phosphate-buffered saline (PBS at pH 7.4)). The flasks were placed in orbital agitating incubator at 37° C. and shacked at 100 rpm. At certain time points, 40 mL medium was taken and centrifuged at 3000 rpm for 2 min. From the supernatant, 30 mL was pipetted and replaced by same amount of the fresh media. In the collected supernatant, the content of the released SOF or EVE was analyzed by high performance liquid chromatography (HPLC).

[3] = tested on: MIA PaCa-2 pancreatic cell line; test: In vitro cytotoxicity study, XTT assay; assay type: cell-based, human; details: MIA PaCa-2 cells
Procedure: (§1) AGS cells (2×10^4 cells/well) were seeded in a 12-well plates (Corning, Millipore Sigma) with 1 mL of RPMI-1640 medium containing 10% FBS (Fetal Bovine Serum) and incubated for 1 day at 37° C. in a humidified incubator containing 5% CO2. AGS cells were allowed to proliferate for tests of in vitro antitumor activity. In triplicate wells, Group 1 (PBS), Group 2 (ISG formulation without everolimus or trametinib), Group 3 (ISG formulation with 90 μg of everolimus), Group 4 (ISG formulation with 90 μg of trametinib) and Group 5 (ISG formulation with 90 μg of everolimus and 90 μg of tramethinib), Group 6 (cell culture media without AGS cells) and Group 7 (10% ethanol in cell culture media) were added directly into chambers of the 12 well plate to examine the in vitro antitumor activity of these solutions against AGS cancer cells.
(§2) Each 12 well plate chamber was seeded with AGS cells (2×10^4 cells/well). The 12 well plates were maintained at 37° C. in a humidified incubator containing 5% CO2 for 48 hours prior to dosing. To create a drug depot at dosing time, 2 μL of each of the ISG everolimus formulation (90 μg everolimus/well), the ISG trametinib formulation (90 μg trametinib/well) and ISG everolimus-trametinib (90 μg everolimus+90 μg trametinib) formulations were added directly into the media of each corresponding plate well and maintained at 37° C. in a humidified incubator for the duration of the experiment. […]
(§3) Briefly, 100 μL of PBS solution containing the XTT substrate (50 mg/mL) was added to each 12-well plate and the plates were incubated at 37° C. for 4 h. […] The solution of each well was transferred to a 96-well plate (triplicate for wells 1 and 2 and duplicate for well 3) and read using a microplate reader (Bio-teck XLS800; Bio-Tek Instruments City of Industry, CA). The optical density of the formazan product of each well was measured at a wavelength of 450 nm and a reference wavelength of 630 nm. […]

[4] = tested on: SW403 colorectal cell line; test: In vitro cytotoxicity study, XTT assay; assay type: cell-based, human; details: SW403 cells
Procedure: as §1, §2, §3

[5] = tested on: NCI H441 lung cell line; test: In vitro cytotoxicity study, XTT assay; assay type: cell-based, human; details: NCI H441 cells
Procedure: as §1, §2, §3

[6] = tested on: AGS cells; test: In vitro cytotoxicity study, XTT assay; assay type: cell-based, human
Procedure: as §1, with “cells. […]” for “cells.”
as §3

| stability of EVE inside the microsphere [2] | Structure (SMILES) | stability of EVE as free form in aqueous solution [1] | in vitro cytotoxicity (XTT) [3] | in vitro cytotoxicity (XTT) [4] | in vitro cytotoxicity (XTT) [5] | in vitro cytotoxicity (XTT), ethanol treatment alone ([6]; 10% ethanol in cell culture media, 72 h time point) | in vitro cytotoxicity (XTT) ([6]; 24 and 72 h of exposure) |
| --- | --- | --- | --- | --- | --- | --- | --- |
| stable inside the microsphere | CO[C@H]1C[C@@H]2CC[C@@H](C)[C@@](O)(O2)C(=O)C(=O)N2CCCC[C@H]2C(=O)O[C@H]([C@H](C)C[C@@H]2CC[C@@H](OCCO)[C@H](OC)C2)CC(=O)[C@H](C)/C=C(\C)[C@@H](O)[C@@H](OC)C(=O)[C@H](C)C[C@H](C)/C=C/C=C/C=C/1C [EVE, everolimus] | degrade quickly in aqueous solution as free form |  |  |  |  |  |
|  | CCO [ethanol] |  | ablation with a complete cytotoxic effect on the cancer cells | ablation with a complete cytotoxic effect on the cancer cells | ablation with a complete cytotoxic effect on the cancer cells | complete ablation and cytotoxicity of the cancer cells | ablation with a complete cytotoxic effect on the cancer cells |
